Reference: ChEMBL document CHEMBL1201862, “PubChem BioAssay data set” (2004)
One block for each molecule: values may come before it. Active and inactive are the calls of the source.

Assays:
Format in all cases: functional
[1] = target: Peroxisome proliferator-activated receptor gamma/Nuclear receptor coactivator 2 (Homo sapiens, UniProt P37231);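 note: agonist potency for raising coactivator recruitment to the receptor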
[2] = target: Peroxisome proliferator-activated receptor gamma/Nuclear receptor coactivator 1 (Homo sapiens, UniProt P37231);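 note: agonist potency as compounds enhance coactivator SRC-1 recruitment to PPARgamma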
Chain of Peroxisome proliferator-activated receptor gamma/Nuclear receptor coactivator 1 (P37231 whole entry): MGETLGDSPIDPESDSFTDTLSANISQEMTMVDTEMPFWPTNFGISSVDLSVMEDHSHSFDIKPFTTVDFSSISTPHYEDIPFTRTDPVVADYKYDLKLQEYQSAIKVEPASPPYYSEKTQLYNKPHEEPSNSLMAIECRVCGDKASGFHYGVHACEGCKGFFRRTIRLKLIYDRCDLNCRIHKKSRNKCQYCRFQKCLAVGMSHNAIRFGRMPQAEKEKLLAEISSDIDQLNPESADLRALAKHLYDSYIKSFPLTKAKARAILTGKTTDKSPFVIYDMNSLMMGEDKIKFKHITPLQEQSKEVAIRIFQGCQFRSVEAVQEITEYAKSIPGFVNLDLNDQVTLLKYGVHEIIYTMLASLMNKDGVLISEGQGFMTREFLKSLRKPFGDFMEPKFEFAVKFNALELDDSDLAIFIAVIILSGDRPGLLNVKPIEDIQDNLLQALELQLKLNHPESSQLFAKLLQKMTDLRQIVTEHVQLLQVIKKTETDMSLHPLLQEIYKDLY
Chain of Peroxisome proliferator-activated receptor gamma/Nuclear receptor coactivator 1 (Q15788 whole entry, further chain): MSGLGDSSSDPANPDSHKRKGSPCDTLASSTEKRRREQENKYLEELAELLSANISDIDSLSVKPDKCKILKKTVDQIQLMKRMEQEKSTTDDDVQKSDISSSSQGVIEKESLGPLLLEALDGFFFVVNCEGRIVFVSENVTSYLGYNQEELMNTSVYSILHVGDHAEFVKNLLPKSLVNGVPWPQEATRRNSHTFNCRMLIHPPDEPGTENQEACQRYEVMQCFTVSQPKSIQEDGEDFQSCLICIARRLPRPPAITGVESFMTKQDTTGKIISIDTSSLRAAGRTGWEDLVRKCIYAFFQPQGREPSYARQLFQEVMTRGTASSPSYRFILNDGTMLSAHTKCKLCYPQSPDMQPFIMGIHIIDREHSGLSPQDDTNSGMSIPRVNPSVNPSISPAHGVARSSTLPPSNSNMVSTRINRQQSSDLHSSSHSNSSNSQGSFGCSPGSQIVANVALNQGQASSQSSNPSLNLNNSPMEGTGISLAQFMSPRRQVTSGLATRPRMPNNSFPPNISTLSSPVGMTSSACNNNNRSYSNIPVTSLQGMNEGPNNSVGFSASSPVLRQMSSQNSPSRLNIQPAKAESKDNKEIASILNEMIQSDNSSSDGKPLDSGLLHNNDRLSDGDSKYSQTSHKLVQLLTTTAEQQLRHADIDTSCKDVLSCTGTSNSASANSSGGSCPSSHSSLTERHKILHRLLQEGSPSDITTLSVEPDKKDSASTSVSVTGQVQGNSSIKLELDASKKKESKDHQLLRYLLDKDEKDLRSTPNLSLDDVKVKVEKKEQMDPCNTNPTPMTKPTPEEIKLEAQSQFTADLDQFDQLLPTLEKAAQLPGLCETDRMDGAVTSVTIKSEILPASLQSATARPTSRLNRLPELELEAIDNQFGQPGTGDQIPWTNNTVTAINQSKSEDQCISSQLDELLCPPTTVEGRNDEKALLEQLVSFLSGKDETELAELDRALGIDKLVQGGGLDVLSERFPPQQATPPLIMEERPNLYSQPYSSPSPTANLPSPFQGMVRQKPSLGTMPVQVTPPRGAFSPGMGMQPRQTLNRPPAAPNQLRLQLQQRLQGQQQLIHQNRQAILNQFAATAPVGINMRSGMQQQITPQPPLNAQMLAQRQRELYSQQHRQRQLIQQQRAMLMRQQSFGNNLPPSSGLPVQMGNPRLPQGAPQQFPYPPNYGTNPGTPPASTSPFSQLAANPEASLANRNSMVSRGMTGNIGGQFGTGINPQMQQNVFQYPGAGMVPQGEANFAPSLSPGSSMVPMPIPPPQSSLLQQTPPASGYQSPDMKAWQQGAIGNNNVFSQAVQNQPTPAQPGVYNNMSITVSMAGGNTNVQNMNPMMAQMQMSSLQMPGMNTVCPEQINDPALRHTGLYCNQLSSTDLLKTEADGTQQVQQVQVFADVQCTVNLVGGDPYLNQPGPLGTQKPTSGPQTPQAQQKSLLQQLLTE

[3] = target: Peroxisome proliferator-activated receptor gamma/Nuclear receptor coactivator 3 (Homo sapiens, UniProt P37231);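 note: agonist potency for raising coactivator recruitment to the receptor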
Chain of Peroxisome proliferator-activated receptor gamma/Nuclear receptor coactivator 3 (P37231 whole entry): as the sequence (P37231 whole entry) above
Chain of Peroxisome proliferator-activated receptor gamma/Nuclear receptor coactivator 3 (Q9Y6Q9 whole entry, further chain): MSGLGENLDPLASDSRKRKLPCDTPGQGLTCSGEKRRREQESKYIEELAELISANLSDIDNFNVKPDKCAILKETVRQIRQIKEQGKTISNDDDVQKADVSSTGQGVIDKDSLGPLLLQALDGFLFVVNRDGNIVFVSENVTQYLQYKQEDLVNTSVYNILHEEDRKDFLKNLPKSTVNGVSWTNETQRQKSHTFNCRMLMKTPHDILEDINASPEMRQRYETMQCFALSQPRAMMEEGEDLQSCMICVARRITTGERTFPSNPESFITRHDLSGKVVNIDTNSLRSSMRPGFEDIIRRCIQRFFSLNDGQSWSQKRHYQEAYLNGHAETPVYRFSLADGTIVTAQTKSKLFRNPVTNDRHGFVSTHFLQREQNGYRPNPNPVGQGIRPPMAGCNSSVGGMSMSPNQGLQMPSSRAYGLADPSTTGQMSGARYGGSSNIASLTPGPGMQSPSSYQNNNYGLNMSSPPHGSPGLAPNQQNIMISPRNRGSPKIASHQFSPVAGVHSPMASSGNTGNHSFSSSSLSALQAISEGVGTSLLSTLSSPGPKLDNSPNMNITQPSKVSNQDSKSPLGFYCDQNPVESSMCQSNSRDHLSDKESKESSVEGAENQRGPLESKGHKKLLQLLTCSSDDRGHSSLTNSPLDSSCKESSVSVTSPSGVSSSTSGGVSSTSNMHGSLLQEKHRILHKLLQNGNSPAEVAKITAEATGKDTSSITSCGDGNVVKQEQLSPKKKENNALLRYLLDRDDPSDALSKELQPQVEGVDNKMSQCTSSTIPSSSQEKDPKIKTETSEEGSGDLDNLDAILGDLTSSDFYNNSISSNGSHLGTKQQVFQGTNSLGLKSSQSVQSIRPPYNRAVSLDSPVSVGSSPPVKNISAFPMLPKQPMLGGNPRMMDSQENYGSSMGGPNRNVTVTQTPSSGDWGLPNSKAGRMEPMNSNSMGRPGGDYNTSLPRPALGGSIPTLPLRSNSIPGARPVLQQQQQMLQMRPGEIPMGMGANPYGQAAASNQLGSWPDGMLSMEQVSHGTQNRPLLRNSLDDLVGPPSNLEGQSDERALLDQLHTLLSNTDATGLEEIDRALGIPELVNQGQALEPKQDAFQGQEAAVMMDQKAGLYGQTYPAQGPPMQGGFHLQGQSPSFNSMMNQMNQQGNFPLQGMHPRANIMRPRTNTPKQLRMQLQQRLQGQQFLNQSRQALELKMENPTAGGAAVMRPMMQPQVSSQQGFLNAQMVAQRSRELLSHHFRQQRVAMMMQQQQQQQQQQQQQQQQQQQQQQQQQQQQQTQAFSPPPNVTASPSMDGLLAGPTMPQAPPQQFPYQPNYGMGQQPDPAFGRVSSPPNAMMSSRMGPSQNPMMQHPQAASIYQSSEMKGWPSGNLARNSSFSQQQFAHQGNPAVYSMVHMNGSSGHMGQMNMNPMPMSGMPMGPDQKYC

[4] = target: T1, Short transient receptor potential channel 4 (Mus musculus, UniProt Q9QUQ5); assay: mouse TRPC4 channel inhibitors, dose response, cell-based, HEK293 TRPC4/mu-opioid, Fluo-4 calcium (AID 434942);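 note: potency of inhibitors blocking the TRPC4 calcium response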
T1 sequence (Q9QUQ5 whole entry): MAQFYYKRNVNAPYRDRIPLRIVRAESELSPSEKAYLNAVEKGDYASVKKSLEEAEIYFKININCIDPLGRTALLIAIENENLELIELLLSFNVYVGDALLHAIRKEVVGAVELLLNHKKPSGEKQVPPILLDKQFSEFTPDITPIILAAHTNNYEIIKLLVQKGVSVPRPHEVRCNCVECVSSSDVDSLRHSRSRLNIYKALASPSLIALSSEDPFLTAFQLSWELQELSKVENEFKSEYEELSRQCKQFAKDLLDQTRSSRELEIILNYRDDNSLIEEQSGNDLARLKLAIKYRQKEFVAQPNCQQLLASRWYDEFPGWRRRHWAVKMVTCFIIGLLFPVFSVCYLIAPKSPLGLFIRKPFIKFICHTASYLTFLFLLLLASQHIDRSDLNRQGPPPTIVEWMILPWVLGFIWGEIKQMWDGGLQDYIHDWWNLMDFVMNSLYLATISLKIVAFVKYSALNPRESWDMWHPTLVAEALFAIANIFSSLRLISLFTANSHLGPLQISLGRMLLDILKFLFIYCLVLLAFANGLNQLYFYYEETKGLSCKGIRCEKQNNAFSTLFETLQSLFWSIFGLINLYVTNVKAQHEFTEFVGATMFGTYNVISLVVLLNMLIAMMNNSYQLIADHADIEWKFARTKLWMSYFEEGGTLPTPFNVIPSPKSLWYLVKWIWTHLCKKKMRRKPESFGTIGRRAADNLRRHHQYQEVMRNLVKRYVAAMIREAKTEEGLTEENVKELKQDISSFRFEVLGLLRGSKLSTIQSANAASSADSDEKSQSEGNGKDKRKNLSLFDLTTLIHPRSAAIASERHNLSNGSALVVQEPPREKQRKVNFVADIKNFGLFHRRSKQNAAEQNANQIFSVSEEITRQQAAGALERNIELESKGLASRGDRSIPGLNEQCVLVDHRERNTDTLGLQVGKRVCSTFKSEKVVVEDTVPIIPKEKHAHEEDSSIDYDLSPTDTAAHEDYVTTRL

Caspase-3 = target: T2, Caspase-3 (Homo sapiens, UniProt P42574);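 note: Dose-response selectivity test against caspase-3 for candidate inhibitors of sentrin-specific proteases (SENPs)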
T2 sequence (P42574 whole entry): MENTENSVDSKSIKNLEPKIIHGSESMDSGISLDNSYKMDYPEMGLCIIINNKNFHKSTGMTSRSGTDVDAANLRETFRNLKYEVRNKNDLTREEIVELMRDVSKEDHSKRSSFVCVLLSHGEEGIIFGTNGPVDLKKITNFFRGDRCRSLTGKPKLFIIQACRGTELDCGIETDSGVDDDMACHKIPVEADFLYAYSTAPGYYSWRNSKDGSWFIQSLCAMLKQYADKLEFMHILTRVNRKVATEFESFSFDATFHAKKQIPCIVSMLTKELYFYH

[5] = target: T3, Sentrin-specific protease 7 (Homo sapiens, UniProt Q9BQF6);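 note: Luminescence-based dose-response confirmation of ultra-high-throughput screening hits, measuring inhibition of SENP7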
T3 sequence (Q9BQF6 whole entry): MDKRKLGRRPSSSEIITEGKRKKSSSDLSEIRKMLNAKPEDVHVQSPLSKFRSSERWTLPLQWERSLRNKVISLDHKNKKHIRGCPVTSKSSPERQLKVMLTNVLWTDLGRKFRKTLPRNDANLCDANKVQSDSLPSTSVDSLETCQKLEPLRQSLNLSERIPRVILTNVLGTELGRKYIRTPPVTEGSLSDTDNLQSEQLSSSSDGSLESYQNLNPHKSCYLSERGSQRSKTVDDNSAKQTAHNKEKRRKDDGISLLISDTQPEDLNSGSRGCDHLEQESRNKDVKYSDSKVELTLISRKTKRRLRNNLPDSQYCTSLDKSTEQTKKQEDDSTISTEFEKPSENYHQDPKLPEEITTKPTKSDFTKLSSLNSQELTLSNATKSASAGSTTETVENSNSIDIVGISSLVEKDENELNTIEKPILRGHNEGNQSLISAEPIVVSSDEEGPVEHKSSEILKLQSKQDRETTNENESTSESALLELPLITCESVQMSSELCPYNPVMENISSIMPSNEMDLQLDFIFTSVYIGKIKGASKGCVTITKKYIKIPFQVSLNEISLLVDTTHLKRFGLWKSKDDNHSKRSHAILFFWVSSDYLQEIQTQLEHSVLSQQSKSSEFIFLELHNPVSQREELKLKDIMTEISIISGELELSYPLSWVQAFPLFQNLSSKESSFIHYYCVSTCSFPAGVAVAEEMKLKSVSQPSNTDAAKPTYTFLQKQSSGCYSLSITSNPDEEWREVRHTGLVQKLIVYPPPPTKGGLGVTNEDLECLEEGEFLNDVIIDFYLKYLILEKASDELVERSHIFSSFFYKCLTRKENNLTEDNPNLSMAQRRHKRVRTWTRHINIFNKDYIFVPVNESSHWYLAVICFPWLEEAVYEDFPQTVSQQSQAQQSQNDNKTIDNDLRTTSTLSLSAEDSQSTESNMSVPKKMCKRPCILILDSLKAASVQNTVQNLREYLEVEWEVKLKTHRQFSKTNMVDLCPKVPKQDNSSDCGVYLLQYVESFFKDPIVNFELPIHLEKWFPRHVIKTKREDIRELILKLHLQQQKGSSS

[6] = target: T4, Sentrin-specific protease 6 (Homo sapiens, UniProt Q9GZR1);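 note: Luminescence-based dose-response confirmatory assay of SENP6 inhibition, following up an ultra-high-throughput screen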
T4 sequence (Q9GZR1 whole entry): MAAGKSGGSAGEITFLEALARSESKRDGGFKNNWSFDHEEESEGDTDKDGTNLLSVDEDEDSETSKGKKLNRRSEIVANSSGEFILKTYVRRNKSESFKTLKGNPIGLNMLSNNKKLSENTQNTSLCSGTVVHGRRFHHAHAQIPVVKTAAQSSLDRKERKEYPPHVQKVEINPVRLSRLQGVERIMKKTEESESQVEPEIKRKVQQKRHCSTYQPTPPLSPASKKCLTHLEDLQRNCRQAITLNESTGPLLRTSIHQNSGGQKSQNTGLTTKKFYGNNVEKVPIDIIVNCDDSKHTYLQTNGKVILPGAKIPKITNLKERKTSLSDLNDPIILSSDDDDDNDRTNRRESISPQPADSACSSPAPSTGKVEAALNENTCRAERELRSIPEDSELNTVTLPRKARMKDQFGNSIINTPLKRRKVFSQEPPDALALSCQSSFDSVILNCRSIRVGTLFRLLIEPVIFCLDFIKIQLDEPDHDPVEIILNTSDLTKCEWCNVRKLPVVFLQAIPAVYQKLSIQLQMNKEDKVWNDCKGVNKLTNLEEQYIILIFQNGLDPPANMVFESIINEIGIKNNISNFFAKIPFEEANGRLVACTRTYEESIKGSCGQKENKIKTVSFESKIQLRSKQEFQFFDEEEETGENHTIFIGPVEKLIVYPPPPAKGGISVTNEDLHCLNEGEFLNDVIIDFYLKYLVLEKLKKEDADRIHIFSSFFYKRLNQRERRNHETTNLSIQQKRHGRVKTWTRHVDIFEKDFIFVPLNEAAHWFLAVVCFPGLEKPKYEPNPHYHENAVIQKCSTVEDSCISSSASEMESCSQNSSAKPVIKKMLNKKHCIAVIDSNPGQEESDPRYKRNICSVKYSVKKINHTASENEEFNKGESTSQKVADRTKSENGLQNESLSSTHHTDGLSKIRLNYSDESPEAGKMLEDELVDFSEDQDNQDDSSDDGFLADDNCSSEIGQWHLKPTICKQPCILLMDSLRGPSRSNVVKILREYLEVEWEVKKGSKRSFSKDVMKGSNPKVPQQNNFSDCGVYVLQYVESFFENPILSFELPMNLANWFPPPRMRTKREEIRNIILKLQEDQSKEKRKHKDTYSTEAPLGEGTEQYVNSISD

[7] = target: T5, Sentrin-specific protease 8 (Homo sapiens, UniProt Q96LD8);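 note: luminescence read-out of SENP8 inhibition, dose-response confirmation following an ultra-high-throughput screen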
T5 sequence (Q96LD8 whole entry): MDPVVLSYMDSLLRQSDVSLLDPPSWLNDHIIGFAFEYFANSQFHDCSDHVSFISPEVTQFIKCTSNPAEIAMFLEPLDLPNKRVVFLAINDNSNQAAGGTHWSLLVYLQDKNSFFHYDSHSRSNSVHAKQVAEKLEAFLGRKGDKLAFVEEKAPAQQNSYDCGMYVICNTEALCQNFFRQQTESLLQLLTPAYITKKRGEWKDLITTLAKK

Protein skinhead-1 = target: T6, Protein skinhead-1 (Caenorhabditis elegans, UniProt P34707)
T6 sequence (P34707 whole entry): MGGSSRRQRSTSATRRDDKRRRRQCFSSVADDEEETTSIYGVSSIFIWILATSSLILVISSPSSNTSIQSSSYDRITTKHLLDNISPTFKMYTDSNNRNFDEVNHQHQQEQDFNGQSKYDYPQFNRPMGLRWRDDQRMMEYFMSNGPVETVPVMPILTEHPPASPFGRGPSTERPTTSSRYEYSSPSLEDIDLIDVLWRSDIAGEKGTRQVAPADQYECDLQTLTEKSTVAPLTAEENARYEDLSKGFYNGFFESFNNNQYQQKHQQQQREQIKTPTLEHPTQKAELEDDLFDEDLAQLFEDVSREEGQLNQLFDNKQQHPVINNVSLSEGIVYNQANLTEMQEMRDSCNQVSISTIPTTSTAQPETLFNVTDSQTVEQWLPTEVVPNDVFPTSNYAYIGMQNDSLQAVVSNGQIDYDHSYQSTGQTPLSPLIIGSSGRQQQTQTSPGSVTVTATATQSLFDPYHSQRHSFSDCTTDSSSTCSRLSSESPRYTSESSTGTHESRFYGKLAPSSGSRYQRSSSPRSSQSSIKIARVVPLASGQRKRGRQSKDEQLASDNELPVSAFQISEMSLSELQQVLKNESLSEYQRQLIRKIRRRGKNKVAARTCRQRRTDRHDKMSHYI

SMILES: Cc1ccc(NS(=O)(=O)c2ccc(OCC(=O)NCc3cccnc3)cc2)cc1
EC50 [1]: > 79.4 µM (not active)
EC50 [2]: > 79.4 µM (not active)
EC50 [3]: > 79.4 µM (not active)

SMILES: Cc1c(N)c(C(C)(C)C)cc(C(C)(C)C)c1[N+](=O)[O-]
EC50 [4]: 4.22 µM (active)

SMILES: CCCCOc1ccc(C(=O)N/C(=C/C=C/c2ccccc2)C(=O)O)cc1
EC50 [1]: > 79.4 µM (not active)
EC50 [2]: > 79.4 µM (not active)
EC50 [3]: > 79.4 µM (not active)

SMILES: COc1cccc(O)c1CN1CCCC(C(=O)c2sccc2C)C1 (stereo unspecified)
EC50 [4]: 3.35 µM (active)

SMILES: Cc1ccc(NC(=O)CN2CCc3ccccc3C2)cc1F
EC50 [4]: 6.68 µM (active)

More lines, main results first:

EC50 [4]: 5.31 µM (active)
SMILES: C=CCc1ccccc1OCC(O)CN1CCN(c2ccccc2OC)CC1 (stereo unspecified)

IC50 (Caspase-3): 15 µM (active)
IC50 [5]: 5.51 µM (active)
IC50 [6]: 17.4 µM (active)
SMILES: Cc1ccc(C(=O)COC(=O)c2ccc(Cl)c(N)c2)s1
IC50 [7]: 23.1 µM (active)

EC50 [1]: > 79.4 µM (not active)
EC50 [2]: > 79.4 µM (not active)
EC50 [3]: > 79.4 µM (not active)
SMILES: C=CCn1c(=O)c2ccccc2n2c(SCc3nc(N)nc(Nc4ccccc4C)n3)nnc12

EC50 [4]: 0.0947 µM (active)
IC50 (Protein skinhead-1): > 100 µM (inactive)
SMILES: CCC1CCCCN1CCN1C(=O)C2C(C(=O)Nc3ccc(OC)cc3)C3C=CC2(O3)C1C(=O)NC1CCCCC1 (stereo unspecified)

EC50 [4]: 15 µM (active)
SMILES: COc1ccc(C(CNC(=O)c2oc3ccc(Cl)cc3c2C)N2CCCCC2)cc1 (stereo unspecified)

EC50 [4]: 2.99 µM (active)
SMILES: OCc1ccccc1CNCc1ccccc1
